These results are taken from patent US20250179061A1 (SIRONAX LTD., priority 2022, published 2025).

Where a name gives a salt, the structure may show the parent alone. Read-outs that look alike come from different tables or passages of the source.

The test system of this test is HT-29 cells. Briefly: HT-29 necroptosis cell viability assay (TNF-α/SMAC mimetic/zVAD-FMK, CellTiter-Glo). The class given is cell-based. The note with it: Homo sapiens. As to the method: Compounds 1-702 of the disclosure were tested for biological activity, following the experimental procedures described below.
• Cell line: HT-29 (ATCC® HTB-38™) • Culture medium: McCOY's 5A, Gibco, Cat No. 16600-082 • FBS, Gibco, Cat No. 10099-141 C • Trypsin: Gibco, Cat No. 25200-056 • DMSO: Sigma, Cat No. 67-68-5, 1L • Assay plate: Corning #3903 • Compound dilution plate: Corning #3357 • Inducers: TNFα, GenScript, Cat No. Z01001-50, • SmacM, Cat. No., HY-15989, MedChemExpress (MCE) • Z_VAD FMK, TargetMol, T6013 • Cell Titer-Glo® Luminescent Cell Viability Assay Kit: Promega, Cat No. G7573 • EnVision: PerkinElmer, 2105-0010
• 1. HT-29 cells were checked every day to make sure that they were healthy and growing as expected. They were subjected to sub-culturing when they were approximately 80% confluent. • 2. The culture medium, McCOY's 5A medium (Gibco, Cat No. 16600-082) with 10% fetal bovine serum or FBS (Gibco, Cat No. 10099-141C), was pre-warmed in a 37° C. water bath for at least 30 min. • 3. When the cells had reached a desired level of confluency of 80% in a T75 flask, the medium was aspirated, and the cells were washed with warm phosphate buffered saline or PBS two times. • 4. 2-3 ml fresh warm trypsin (Gibco, Cat No. 25200-056) solution was added to the washed cells. The flask with the cells was transferred to a 37° C. incubator. • 5. After 5 minutes, the side of the flask was tapped, and the flask was examined under a microscope for detachment of the cells to the flask. If necessary, the cells were kept in the incubator for an additional 5-10 minutes, with occasional tapping, until lifting was complete. • 6. The trypsin reaction was neutralized by transferring 6-9 ml cell culture medium to sterile 15 ml conical tubes, and by centrifuging the cell culture at 300×g for 7 minutes to pellet the cells (supernatant decanted). • 7. The cells were resuspended in fresh cell culture medium and the cell counting was performed using a hemocytometer. • 8. 100 μl of the resuspended cell culture medium containing ˜5,000 cells were transferred into each well of the sterile 96-well cell culture plate (Corning 3903) and cultured overnight at 37° C. with 5% CO2.
• 1. All test compounds were dissolved in DMSO (Dimethyl sulfoxide) to create a 20 mM stock. • 2. 3 μl of 20 mM stock of each compound was mixed with 27 μl DMSO, and the compound solution was further diluted at a titration ratio of 1:3 (20 μl compound solution+40 μl DMSO) till the 10 points end. • 3. All culture medium was removed from assay plates filled with HT-29 cell cultures. The cells were then washed with 1 PBS, and resuspsended in fresh, FBS-free McCOY's 5A medium containing a cocktail of TNF-α (10 ng/ml), a SMAC mimetic compound (6 μM) and Z-VAD-fluoromethylketone or zVAD-FMK (10 μM) to stimulate the HT-29 cells to increase RIP1 kinase levels and necroptosis. • 4. 0.5 μL of the diluted compound solution was added to the corresponding 96-well assay plates. • 5. The assay plates were incubated for 20 hours at 37° C. with 5% CO2.
• 1. The CellTiter-Glo® Luminescent Cell Viability Assay was employed to detect the ATP levels of viable HT-29 cells. • 2. The CellTiter-Glo® buffer and the lyophilized substrate were equilibrated to room temperature prior to use. • 3. The CellTiter-Glo® substrate was resuspended with CellTiter-Glo® buffer, then mixed by gently vortexing to obtain a homogeneous solution. • 4. 20 μl of the enzyme/substrate mixture was transferred by multi-channel pipetting into 96-well assay plates. • 5. The assay plates were placed on an orbital shaker and the contents were shaken for 3 minutes to induce cell lysis. • 6. The assay plates were incubated at room temperature for 10 minutes to stabilize the luminescent signal. • 7. The luminescence signals were read and recorded with EnVision. • 8. The geometric mean IC50 values were calculated from 10 points response dose with duplicates. […]
On the technique in general: Cellular ATP, detected with luciferase, serves as a proxy for viable cell number.

[1] abbreviates: HT-29 cells stimulated with TNF-α (10 ng/ml), SMAC mimetic (6 μM) and zVAD-FMK (10 μM), 20 hours, CellTiter-Glo ATP luminescence, geometric mean IC50 from 10 points, read-out: Activity.
[2] abbreviates: HT-29, HT-29 necroptosis cell viability, IC50 class symbols, read-out: Activity.
Setting [3] is: HT-29, HT-29 cells, necroptosis induced by TNF-α/SMAC mimetic/zVAD-FMK, CellTiter-Glo, read-out: Activity (IC50 class).
Setting [4] is: HT-29, HT-29 necroptosis cell viability assay, class symbols for IC50, read-out: Activity.

Regarding `Cc1nc(C#N)sc1Oc1ccc(-n2ncn(Cc3ncccc3Cl)c2=O)cc1F` [Example 37, 5-(4-(4-((3-chloropyridin-2-yl)methyl)-5-oxo-4,5-dihydro-1H-1,2,4-triazol-1-yl)-2-fluorophenoxy)-4-methylthiazole-2-carbonitrile], under setting [1], the IC50 is below 0.1 µM. `Cc1nc(C(C)(C)O)sc1Oc1ncc(-n2ncn(Cc3c(F)cccc3F)c2=O)cc1Cl` [Example 468, 2-(5-chloro-6-((2-(2-hydroxypropan-2-yl)-4-methylthiazol-5-yl)oxy)pyridin-3-yl)-4-(2,6-difluorobenzyl)-2,4-dihydro-3H-1,2,4-triazol-3-one]: under setting [2], the IC50 was below 0.1 µM.

Turning to `CC1(C#N)CCN(c2cc(Oc3ccc(-n4ncn(Cc5c(F)cccc5F)c4=O)cc3F)c(Cl)cn2)C1` (centres unmarked) [Example 393, 1-(5-chloro-4-(4-(4-(2,6-difluorobenzyl)-5-oxo-4,5-dihydro-1H-1,2,4-triazol-1-yl)-2-fluorophenoxy)pyridin-2-yl)-3-methylpyrrolidine-3-carbonitrile], the IC50 under setting [2] was below 0.1 µM. As for `COc1cncc(Oc2ccc(-n3ncn(Cc4c(F)cccc4F)c3=O)cc2)c1` [Example 671, 4-(2,6-difluorobenzyl)-2-(4-((5-methoxypyridin-3-yl)oxy)phenyl)-2,4-dihydro-3H-1,2,4-triazol-3-one], under setting [3], the IC50 is below 0.1 µM. `CCOC1CN(c2cc(Oc3ccc(-n4ncn(Cc5c(F)cccc5F)c4=O)cc3F)c(F)cn2)C1` [Example 364, 4-(2,6-difluorobenzyl)-2-(4-((2-(3-ethoxyazetidin-1-yl)-5-fluoropyridin-4-yl)oxy)-3-fluorophenyl)-2,4-dihydro-3H-1,2,4-triazol-3-one]: the IC50 under setting [2] is below 0.1 µM.

As for `CC(C)(C)Oc1cc(Oc2ccc(-n3ncn(Cc4c(F)cccc4F)c3=O)cc2)ccn1` [Example 388, 2-(4-((2-(tert-butoxy)pyridin-4-yl)oxy)phenyl)-4-(2,6-difluorobenzyl)-2,4-dihydro-3H-1,2,4-triazol-3-one], the IC50 under setting [2] was 0.1 to 1 µM.

Turning to `Cc1nc([C@@H](C)O)sc1Oc1ccc(-n2nc3n(c2=O)[C@H](c2ccccc2)CC3)cc1F` (single isomer, unassigned) [Example 150], the IC50 under setting [4] was below 0.1 µM.

Regarding `O=c1n(Cc2c(F)cccc2F)cnn1-c1ccc(Oc2nc3c(s2)CCCC3)cc1` [Example 83, 4-(2,6-difluorobenzyl)-2-(4-((4,5,6,7-tetrahydrobenzo[d]thiazol-2-yl)oxy)phenyl)-2,4-dihydro-3H-1,2,4-triazol-3-one], the IC50 under setting [1] lay in the range of 0.1 to 1 µM. Regarding `O=c1n(Cc2c(F)cccc2F)cnn1-c1ccc(Oc2ccnc(N3CC(F)(C4CC4)C3)c2)cc1` [Example 280, 2-(4-((2-(3-cyclopropyl-3-fluoroazetidin-1-yl)pyridin-4-yl)oxy)phenyl)-4-(2,6-difluorobenzyl)-2,4-dihydro-3H-1,2,4-triazol-3-one], the IC50 under setting [2] lay within 0.1 to 1 µM.

With `Cn1nc(C(N)=O)cc1Oc1ccc(-n2nc3n(c2=O)[C@H](c2ccccc2)CC3)cc1F` (single isomer, unassigned) [Example 30], under setting [1], the IC50 is below 0.1 µM.

Regarding `Cc1nc(C#N)sc1Oc1ccc(-n2ncn(Cc3ncccc3Cl)c2=O)cc1F` [Example 576, 5-(4-(4-((3-chloropyridin-2-yl)methyl)-5-oxo-4,5-dihydro-1H-1,2,4-triazol-1-yl)-2-fluorophenoxy)-4-methylthiazole-2-carbonitrile], the IC50 under setting [4] was below 0.1 µM. Turning to `Cc1nc(C=C2COC2)sc1Oc1ccc(-n2ncn(Cc3c(F)cccc3F)c2=O)cc1` [Example 547, 4-(2,6-difluorobenzyl)-2-(4-((4-methyl-2-(oxetan-3-ylidenemethyl)thiazol-5-yl)oxy)phenyl)-2,4-dihydro-3H-1,2,4-triazol-3-one], the IC50 under setting [4] is below 0.1 µM. As to `COC(=O)c1cc(C)n(Cc2ccc(-n3ncn(Cc4c(F)cccc4F)c3=O)cc2F)c1C` [Example 205, methyl 1-(4-(4-(2,6-difluorobenzyl)-5-oxo-4,5-dihydro-1H-1,2,4-triazol-1-yl)-2-fluorobenzyl)-2,5-dimethyl-1H-pyrrole-3-carboxylate], the IC50 under setting [4] is below 0.1 µM. Turning to `Cc1nc(N2CC(C)(N)C2)sc1C(=O)c1ccc(-n2ncn(Cc3c(F)cccc3F)c2=O)cc1` [Example 507, 2-(4-(2-(3-amino-3-methylazetidin-1-yl)-4-methylthiazole-5-carbonyl)phenyl)-4-(2,6-difluorobenzyl)-2,4-dihydro-3H-1,2,4-triazol-3-one trifluoroacetate], the IC50 under setting [4] lay in the range of 0.1 to 1 µM. As for `N#Cc1ccccc1Oc1ccc(-n2ncn(Cc3c(F)cccc3F)c2=O)cc1` [Example 404, 2-(4-(4-(2,6-difluorobenzyl)-5-oxo-4,5-dihydro-1H-1,2,4-triazol-1-yl)phenoxy)benzonitrile], the IC50 under setting [2] was 0.1 to 1 µM. On the same count and under the same terms, the figure for `CC1(C#N)CN(c2nccc(Oc3ccc(-n4ncn(Cc5c(F)cccc5F)c4=O)cc3F)c2Cl)C1` [Example 238, 1-(3-chloro-4-(4-(4-(2,6-difluorobenzyl)-5-oxo-4,5-dihydro-1H-1,2,4-triazol-1-yl)-2-fluorophenoxy)pyridin-2-yl)-3-methylazetidine-3-carbonitrile] is below 0.1 µM. Take `NC(=O)c1nnc(Oc2ccc(-n3nc4n(c3=O)[C@H](c3ccccc3)CC4)cc2F)o1` (single isomer, unassigned) [Example 691]: under setting [1], the IC50 lay within 1 to 10 µM. In the case of `Cc1nc(C(C)N)sc1Oc1ccc(-n2ncn(Cc3c(F)cccc3F)c2=O)cc1F` (centres unmarked) [Example 163, 2-(4-((2-(1-aminoethyl)-4-methylthiazol-5-yl)oxy)-3-fluorophenyl)-4-(2,6-difluorobenzyl)-2,4-dihydro-3H-1,2,4-triazol-3-one], under setting [4], the IC50 is below 0.1 µM. The same measure, in the same setting: the figure for `Cc1n[nH]c(C)c1Oc1ccc(-n2ncn(Cc3c(F)cccc3F)c2=O)cc1F` [Example 178, 4-(2,6-difluorobenzyl)-2-(4-((3,5-dimethyl-1H-pyrazol-4-yl)oxy)-3-fluorophenyl)-2,4-dihydro-3H-1,2,4-triazol-3-one] is below 0.1 µM.

On to `Cc1nc(C(N)=O)sc1Oc1ccc(-n2nc3n(c2=O)[C@H](c2ccc(F)cc2)CC3)cc1F` (single isomer, unassigned) [Example 668], for which the IC50 under setting [3] is below 0.1 µM.

As for `Cc1cc(C(N)=O)oc1Oc1ccc(-n2nc3n(c2=O)[C@H](c2ccccc2)CC3)cc1F` (single isomer, unassigned) [Example 694], the IC50 under setting [1] was below 0.1 µM.

As to `Cc1nc(CN)sc1Oc1ccc(-n2ncn(Cc3c(F)cccc3F)c2=O)cc1` [Example 160, 2-(4-((2-(aminomethyl)-4-methylthiazol-5-yl)oxy)phenyl)-4-(2,6-difluorobenzyl)-2,4-dihydro-3H-1,2,4-triazol-3-one], the IC50 under setting [4] is 0.1 to 1 µM. For the compound `Cc1cc(C)n(Cc2ccc(-n3ncn(Cc4c(F)cccc4F)c3=O)cc2)c1` [Example 188, 4-(2,6-difluorobenzyl)-2-(4-((2,4-dimethyl-1H-pyrrol-1-yl)methyl)phenyl)-2,4-dihydro-3H-1,2,4-triazol-3-one], the IC50 under setting [4] lay in the range of 0.1 to 1 µM.
